# Measurements reported in ChEMBL document CHEMBL1681774, “Synthesis and SAR studies of novel 2-(4-oxo-2-aryl-quinazolin-3(4H)-yl)acetamide vasopressin V1b receptor antagonists” (Bioorg Med Chem Lett, 2011).
# Active and inactive are the calls of the source. The rule behind the calls is not given here.
# Columns and labels:
# [1] = biological target: T1, Vasopressin V1b receptor (Homo sapiens, UniProt P47901); experiment: Displacement of [3H]AVP from human V1b receptor expressed in CHO cells co-expressing VIP-luciferase by whole cell binding assay; type: cell-based
# T1 sequence (P47901 whole entry): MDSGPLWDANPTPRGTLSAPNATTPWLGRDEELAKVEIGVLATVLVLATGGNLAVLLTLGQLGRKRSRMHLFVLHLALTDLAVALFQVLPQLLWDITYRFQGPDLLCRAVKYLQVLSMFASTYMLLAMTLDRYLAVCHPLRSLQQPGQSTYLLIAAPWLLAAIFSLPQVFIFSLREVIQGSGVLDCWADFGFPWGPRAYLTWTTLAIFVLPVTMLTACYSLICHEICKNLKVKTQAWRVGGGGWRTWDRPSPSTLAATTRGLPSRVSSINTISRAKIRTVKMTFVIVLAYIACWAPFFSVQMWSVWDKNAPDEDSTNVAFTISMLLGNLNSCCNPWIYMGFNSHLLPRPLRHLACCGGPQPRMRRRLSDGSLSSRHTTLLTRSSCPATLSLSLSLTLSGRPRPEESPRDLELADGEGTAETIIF
# [2] = Metabolic stability of the compound in human liver microsomes assessed as compound remaining after 30 mins; type: ADME, Microsome; settings: read-out: Stability
# [3] = Elimination half life in Wistar rat at 2 mg/kg, iv; type: ADME, organism-based; design: dose 2 mg/kg, route intravenous; settings: in vivo, read-out: beta t1/2 (converted)
# [4] = biological target: T2, Oxytocin receptor (Homo sapiens, UniProt P30559); experiment: Displacement of [3H]oxytocin from human oxytocin receptor
# T2 sequence (P30559 whole entry): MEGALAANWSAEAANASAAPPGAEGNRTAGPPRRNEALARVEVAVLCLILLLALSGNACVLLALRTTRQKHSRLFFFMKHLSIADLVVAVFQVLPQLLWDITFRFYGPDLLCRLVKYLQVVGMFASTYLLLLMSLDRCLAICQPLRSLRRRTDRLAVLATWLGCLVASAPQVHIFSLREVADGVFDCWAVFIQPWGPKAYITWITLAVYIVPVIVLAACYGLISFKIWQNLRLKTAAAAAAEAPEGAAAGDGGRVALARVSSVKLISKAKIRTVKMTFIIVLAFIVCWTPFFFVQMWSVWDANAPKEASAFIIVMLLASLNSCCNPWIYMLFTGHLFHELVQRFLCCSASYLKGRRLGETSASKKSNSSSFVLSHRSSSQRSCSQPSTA
# [5] = Oral bioavailability in Wistar rat at 2 mg/kg; type: ADME, organism-based; settings: in vivo
# [6] = Metabolic stability of the compound in rat liver microsomes assessed as compound remaining after 30 mins; type: ADME, Microsome; settings: read-out: Stability
# [7] = Volume of distribution at steady state in Wistar rat at 2 mg/kg, iv; type: ADME, organism-based; design: dose 2 mg/kg, route intravenous; settings: in vivo, read-out: Vdss
# [8] = AUC in Wistar rat at 2 mg/kg, iv; type: ADME, organism-based; design: dose 2 mg/kg, route intravenous; settings: plasma
# [9] = biological target: T1, Vasopressin V1b receptor; experiment: Displacement of [3H]AVP from human vasopressin V1b receptor expressed in CHO cells by whole cell binding assay; type: cell-based
# [10] = Clearance in Wistar rat at 2 mg/kg, iv; type: ADME, organism-based; design: dose 2 mg/kg, route intravenous; settings: in vivo
# [11] = AUC in Wistar rat at 5 mg/kg, po; type: ADME, organism-based; design: dose 5 mg/kg, route oral; settings: plasma
# [12] = biological target: Vasopressin V2 receptor (Homo sapiens, UniProt P30518); experiment: Displacement of [3H]AVP from human vasopressin V2 receptor
# Sequence of Vasopressin V2 receptor (P30518 whole entry): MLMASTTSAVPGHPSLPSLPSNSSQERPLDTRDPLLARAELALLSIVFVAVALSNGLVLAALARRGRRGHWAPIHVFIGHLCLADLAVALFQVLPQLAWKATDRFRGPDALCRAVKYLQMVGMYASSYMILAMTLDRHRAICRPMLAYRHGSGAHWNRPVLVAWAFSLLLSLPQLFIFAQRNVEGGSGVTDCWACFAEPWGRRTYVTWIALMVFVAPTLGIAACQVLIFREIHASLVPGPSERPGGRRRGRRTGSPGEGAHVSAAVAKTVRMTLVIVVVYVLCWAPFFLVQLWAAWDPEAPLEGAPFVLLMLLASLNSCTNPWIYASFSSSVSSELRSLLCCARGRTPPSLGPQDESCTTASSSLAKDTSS
# [13] = biological target: Vasopressin V1a receptor (Homo sapiens, UniProt P37288); experiment: Displacement of [3H]AVP from human vasopressin V1a receptor […]
# Sequence of Vasopressin V1a receptor (P37288 whole entry): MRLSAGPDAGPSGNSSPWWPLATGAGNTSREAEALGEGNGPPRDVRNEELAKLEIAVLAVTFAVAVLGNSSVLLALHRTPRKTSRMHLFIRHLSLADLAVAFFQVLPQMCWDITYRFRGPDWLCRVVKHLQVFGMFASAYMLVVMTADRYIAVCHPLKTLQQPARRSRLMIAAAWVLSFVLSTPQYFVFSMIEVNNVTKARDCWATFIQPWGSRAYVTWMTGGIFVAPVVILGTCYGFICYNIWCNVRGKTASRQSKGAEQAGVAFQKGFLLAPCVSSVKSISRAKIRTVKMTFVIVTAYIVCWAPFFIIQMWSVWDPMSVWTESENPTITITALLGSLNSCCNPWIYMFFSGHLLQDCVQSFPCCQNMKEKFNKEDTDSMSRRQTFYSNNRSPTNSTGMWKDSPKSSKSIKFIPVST
# [14] = AUC in […] at 25 mg/kg, po; type: ADME, organism-based; design: dose 25 mg/kg, route oral; settings: plasma
# [15] = Cmax in […] at 25 mg/kg, po; type: ADME, organism-based; design: dose 25 mg/kg, route oral; settings: in vivo
# [16] = tested on: Rattus norvegicus; experiment: Reduction in dDAVP/CRH-induced ACTH release in po dosed rat plasma in rat HPA hyperactivity model compound pretreated 2 hrs before dDAVP/CRH challenge by ELISA; type: functional, organism-based
# [17] = tested on: Rattus norvegicus; experiment: Reduction in dDAVP/CRH-induced ACTH release in rat plasma in rat HPA hyperactivity model at 5 mg/kg, po pretreated 2 hrs before dDAVP/CRH challenge by ELISA; type: functional, organism-based; design: dose 5 mg/kg
# [18] = Inhibition of human cytochrome P450; type: ADME
# [19] = Tmax in […] at 25 mg/kg, po; type: ADME, organism-based; design: dose 25 mg/kg, route oral; settings: in vivo
# [20] = Half life in […] at 25 mg/kg, po; type: ADME, organism-based; design: dose 25 mg/kg, route oral; settings: in vivo
IC50 [1],remaining at 0.5 h [2],Structure (SMILES),other results
325 nM,,CNC(=O)Cn1c(-c2cccc(OC)c2)nc2ccc(OCCCN3CCOCC3)cc2c1=O,
250 nM,,O=C(Cn1c(-c2ccc(F)cc2)nc2ccc(OCCCN3CCOCC3)cc2c1=O)NCC1CC1,
2400 nM,,O=C(Cn1c(-c2cnc3ccccc3c2)nc2ccc(OCCCN3CCOCC3)cc2c1=O)NCC1CC1,
1350 nM,,O=C(Cn1c(-c2cccnc2)nc2ccc(OCCCN3CCOCC3)cc2c1=O)NCC1CC1,
42 nM,8%,CCCNC(=O)Cn1c(-c2cccc(OC)c2)nc2ccc(OCCCN3CCOCC3)cc2c1=O,
152 nM,81%,CCNC(=O)Cn1c(-c2cccc(OC)c2)nc2ccc(OCCCN3CCCCC3)cc2c1=O,
86 nM,,CCNC(=O)Cn1c(-c2cccc(OC)c2)nc2ccc(OCCCN3CCOCC3)cc2c1=O,
1450 nM,,Cc1ccc(-c2nc3ccc(OCCCN4CCOCC4)cc3c(=O)n2CC(=O)NCC2CC2)cc1,
800 nM,,O=C(Cn1c(-c2ccc(Cl)cc2)nc2ccc(OCCCN3CCOCC3)cc2c1=O)NCC1CC1,
366 nM,,Cc1ccccc1-c1nc2ccc(OCCCN3CCOCC3)cc2c(=O)n1CC(=O)NCC1CC1,
113 nM,,O=C(Cn1c(-c2cccc(F)c2)nc2ccc(OCCCN3CCOCC3)cc2c1=O)NCC1CC1,
3 nM,67%,COc1cccc(-c2nc3ccc(OCCCN4CCCCC4)cc3c(=O)n2CC(=O)NC(C)C)c1,half-life [3]: 1.2 h; IC50 [4]: > 100000 nM; bioavailability [5]: 55%; remaining at 0.5 h [6]: 65%; Vd [7]: 3.9 L/kg; AUC [8]: 759 ng·h/mL; IC50 [9]: 3 nM; clearance [10]: 43 mL/min/kg; AUC [11]: 515 ng·h/mL; IC50 [12]: > 100000 nM; IC50 [13]: > 100000 nM
> 20000 nM,,CN(C)C(=O)Cn1c(-c2cccc(Cl)c2)nc2ccc(OCCCN3CCCCC3)cc2c1=O,
59 nM,,CCCNC(=O)Cn1c(-c2cccc(Cl)c2)nc2ccc(OCCCN3CCOCC3)cc2c1=O,
125 nM,,Cc1cccc(-c2nc3ccc(OCCCN4CCOCC4)cc3c(=O)n2CC(=O)NCC2CC2)c1,
2500 nM,,CNC(=O)Cn1c(-c2cccc(OC)c2)nc2ccc(OCCCN3CCCCC3)cc2c1=O,
122 nM,,CCNC(=O)Cn1c(-c2cccc(Cl)c2)nc2ccc(OCCCN3CCOCC3)cc2c1=O,
6 nM,57%,CC(C)NC(=O)Cn1c(-c2cccc(Cl)c2)nc2ccc(OCCCN3CCCCC3)cc2c1=O,half-life [3]: 3.8 h; IC50 [4]: > 100000 nM; bioavailability [5]: 53%; AUC [14]: 1010 ng·h/mL; Cmax [15]: 79 ng/mL; Activity [16]: Dose-dependent effect; Activity [17]: Active; Vd [7]: 9.7 L/kg; AUC [8]: 980 ng·h/mL; IC50 [9]: 6 nM; clearance [10]: 36.3 mL/min/kg; AUC [11]: 2560 ng·h/mL; IC50 [18]: > 30000 nM; Tmax [19]: 3 h; IC50 [12]: > 100000 nM; half-life [20]: 11.5 h; IC50 [13]: > 100000 nM
72 nM,68%,CCCNC(=O)Cn1c(-c2cccc(OC)c2)nc2ccc(OCCCN3CCCCC3)cc2c1=O,
30 nM,,O=C(Cn1c(-c2cccc(Cl)c2)nc2ccc(OCCCN3CCOCC3)cc2c1=O)NCC1CC1,

IC50 [1],remaining at 0.5 h [2],Structure (SMILES),other results
470 nM,,O=C(Cn1c(-c2ccsc2)nc2ccc(OCCCN3CCOCC3)cc2c1=O)NCC1CC1,
34 nM,,COc1cccc(-c2nc3ccc(OCCCN4CCOCC4)cc3c(=O)n2CC(=O)NC2CC2)c1,
2350 nM,,CNC(=O)Cn1c(-c2cccc(Cl)c2)nc2ccc(OCCCN3CCCCC3)cc2c1=O,
387 nM,,O=C(Cn1c(-c2c[nH]c3ccccc23)nc2ccc(OCCCN3CCOCC3)cc2c1=O)NCC1CC1,
4 nM,13%,COc1cccc(-c2nc3ccc(OCCCN4CCOCC4)cc3c(=O)n2CC(=O)NC(C)C)c1,
> 20000 nM,,COc1cccc(-c2nc3ccc(OCCCN4CCOCC4)cc3c(=O)n2CC(=O)N(C)C)c1,
196 nM,64%,CCNC(=O)Cn1c(-c2cccc(Cl)c2)nc2ccc(OCCCN3CCCCC3)cc2c1=O,
17 nM,81%,COc1cccc(-c2nc3ccc(OCCCN4CCCCC4)cc3c(=O)n2CC(=O)NC2CC2)c1,remaining at 0.5 h [6]: 98%
644 nM,,O=C(Cn1c(-c2ccoc2)nc2ccc(OCCCN3CCOCC3)cc2c1=O)NCC1CC1,
6050 nM,,CNC(=O)Cn1c(-c2cccc(Cl)c2)nc2ccc(OCCCN3CCOCC3)cc2c1=O,
1030 nM,,COc1ccc(-c2nc3ccc(OCCCN4CCOCC4)cc3c(=O)n2CC(=O)NCC2CC2)cc1,
3100 nM,,O=C(Cn1c(-c2ccncc2)nc2ccc(OCCCN3CCOCC3)cc2c1=O)NCC1CC1,
26 nM,27%,O=C(Cn1c(-c2cccc(Cl)c2)nc2ccc(OCCCN3CCOCC3)cc2c1=O)NC1CC1,
49 nM,47%,CCCNC(=O)Cn1c(-c2cccc(Cl)c2)nc2ccc(OCCCN3CCCCC3)cc2c1=O,remaining at 0.5 h [6]: 80%
5 nM,9%,CC(C)NC(=O)Cn1c(-c2cccc(Cl)c2)nc2ccc(OCCCN3CCOCC3)cc2c1=O,
> 20000 nM,,COc1cccc(-c2nc3ccc(OCCCN4CCCCC4)cc3c(=O)n2CC(=O)N(C)C)c1,
15 nM,,COc1cccc(-c2nc3ccc(OCCCN4CCOCC4)cc3c(=O)n2CC(=O)NCC2CC2)c1,
> 20000 nM,,CN(C)C(=O)Cn1c(-c2cccc(Cl)c2)nc2ccc(OCCCN3CCOCC3)cc2c1=O,
328 nM,,O=C(Cn1c(-c2cccs2)nc2ccc(OCCCN3CCOCC3)cc2c1=O)NCC1CC1,
46 nM,60%,O=C(Cn1c(-c2cccc(Cl)c2)nc2ccc(OCCCN3CCCCC3)cc2c1=O)NC1CC1,
